# Test results from ChEMBL document CHEMBL4373724, “An overview of recent progress in siderophore-antibiotic conjugates” (2019).
# Tests used:
# Format in all cases: functional
# Pseudomonas aeruginosa [1] = assay: Antimicrobial activity against Pseudomonas aeruginosa under iron-deficient condition by CLSI protocol based broth microdilution method
# Klebsiella pneumoniae [2] = assay: Antimicrobial activity against Klebsiella pneumoniae X68 under iron-deficient condition by CLSI protocol based broth microdilution method
# Pseudomonas aeruginosa [3] = assay: Antimicrobial activity against Pseudomonas aeruginosa 61 under iron-deficient condition by CLSI protocol based broth microdilution method
# Pseudomonas aeruginosa [4] = assay: Antimicrobial activity against Pseudomonas aeruginosa KW799 under iron-sufficient condition by CLSI protocol based broth microdilution method
# Pseudomonas aeruginosa [5] = assay: Antimicrobial activity against Pseudomonas aeruginosa 61 under iron-sufficient condition by CLSI protocol based broth microdilution method
# Pseudomonas aeruginosa [6] = assay: Antimicrobial activity against Pseudomonas aeruginosa PA4 under iron-sufficient condition by CLSI protocol based broth microdilution method
# Pseudomonas aeruginosa [7] = assay: Antimicrobial activity against Pseudomonas aeruginosa PA6 under iron-deficient condition by CLSI protocol based broth microdilution method
# Pseudomonas aeruginosa [8] = assay: Antimicrobial activity against Pseudomonas aeruginosa KW799 under iron-deficient condition by CLSI protocol based broth microdilution method
# Klebsiella pneumoniae [9] = assay: Antimicrobial activity against Klebsiella pneumoniae ATCC 8303 under iron-deficient condition by CLSI protocol based broth microdilution method
# Pseudomonas aeruginosa [10] = assay: Antimicrobial activity against Pseudomonas aeruginosa PAO1 under iron-deficient condition by CLSI protocol based broth microdilution method
# Escherichia coli [11] = assay: Antimicrobial activity against Escherichia coli ATCC 25922 under iron-sufficient condition by CLSI protocol based broth microdilution method
# Pseudomonas aeruginosa [12] = assay: Antimicrobial activity against Pseudomonas aeruginosa PAO1 under iron-sufficient condition by CLSI protocol based broth microdilution method
# Klebsiella pneumoniae [13] = assay: Antimicrobial activity against Klebsiella pneumoniae X68 under iron-sufficient condition by CLSI protocol based broth microdilution method
# Pseudomonas aeruginosa [14] = assay: Antimicrobial activity against Pseudomonas aeruginosa PA4 under iron-deficient condition by CLSI protocol based broth microdilution method
# Pseudomonas aeruginosa [15] = assay: Antimicrobial activity against Pseudomonas aeruginosa under iron-sufficient condition by CLSI protocol based broth microdilution method
# Escherichia coli [16] = assay: Antimicrobial activity against Escherichia coli ATCC 25922 under iron-deficient condition by CLSI protocol based broth microdilution method
# Pseudomonas aeruginosa [17] = assay: Antimicrobial activity against Pseudomonas aeruginosa PA6 under iron-sufficient condition by CLSI protocol based broth microdilution method
# Klebsiella pneumoniae [18] = assay: Antimicrobial activity against Klebsiella pneumoniae ATCC 8303 under iron-sufficient condition by CLSI protocol based broth microdilution method
# Acinetobacter baumannii = assay: Antimicrobial activity against Acinetobacter baumannii ATCC 17961 after 18 hrs by CLSI protocol based broth microdilution method; settings: ATCC 17961, 18 h
# Escherichia coli [19] = assay: Antimicrobial activity against Escherichia coli ATCC 25922 after 18 hrs by CLSI protocol based broth microdilution method; settings: ATCC 25922, 18 h
# Enterococcus faecium = assay: Antimicrobial activity against Enterococcus faecium NCTC after 18 hrs by CLSI protocol based broth microdilution method
# Klebsiella pneumoniae [20] = assay: Antimicrobial activity against Klebsiella pneumoniae 700603 after 18 hrs by CLSI protocol based broth microdilution method; settings: Klebsiella pneumoniae, 700603, 18 h
# Staphylococcus aureus [21] = assay: Antimicrobial activity against Staphylococcus aureus SG 511 after 18 hrs by CLSI protocol based broth microdilution method; settings: SG 511, 18 h
# Pseudomonas aeruginosa [22] = assay: Antimicrobial activity against Pseudomonas aeruginosa ATCC 27853 after 18 hrs by CLSI protocol based broth microdilution method; settings: ATCC 27853, 18 h
# Klebsiella aerogenes = assay: Antimicrobial activity against Enterobacter aerogenes ATCC 35029 after 18 hrs by CLSI protocol based broth microdilution method; settings: ATCC 35029, 18 h
# Staphylococcus aureus [23] = assay: Antimicrobial activity against Staphylococcus aureus X1.1 under iron-deficient condition by broth microdilution method
# Pseudomonas aeruginosa [24] = assay: Antimicrobial activity against Pseudomonas aeruginosa X621 under iron-sufficient condition by broth microdilution method
# Escherichia coli [25] = assay: Antimicrobial activity against Escherichia coli X580 under iron-sufficient condition by broth microdilution method
# Pseudomonas aeruginosa [26] = assay: Antimicrobial activity against Pseudomonas aeruginosa X620 under iron-sufficient condition by broth microdilution method
# Micrococcus luteus [27] = assay: Antimicrobial activity against Micrococcus luteus under iron-deficient condition by broth microdilution method
# Pseudomonas aeruginosa [28] = assay: Antimicrobial activity against Pseudomonas aeruginosa X620 under iron-deficient condition by broth microdilution method
# Pseudomonas aeruginosa [29] = assay: Antimicrobial activity against Pseudomonas aeruginosa X621 under iron-deficient condition by broth microdilution method
# Micrococcus luteus [30] = assay: Antimicrobial activity against Micrococcus luteus under iron-sufficient condition by broth microdilution method
# Escherichia coli [31] = assay: Antimicrobial activity against Escherichia coli EC14 under iron-deficient condition by broth microdilution method
# Escherichia coli [32] = assay: Antimicrobial activity against Escherichia coli X580 under iron-deficient condition by broth microdilution method
# Staphylococcus aureus [33] = assay: Antimicrobial activity against Staphylococcus aureus X1.1 under iron-sufficient condition by broth microdilution method
# Escherichia coli [34] = assay: Antimicrobial activity against Escherichia coli EC14 under iron-sufficient condition by broth microdilution method
# [35] = tested on: Mycolicibacterium smegmatis; assay: Antitubercular activity against Mycobacterium smegmatis
# [36] = tested on: Mycobacterium tuberculosis; assay: Antitubercular activity against Mycobacterium tuberculosis H37Rv
compound,measurement,setting,value
CC1(C)S[C@@H]2[C@H](NC(=O)[C@H](NC(=O)CCC(=O)NC(CCCNC(=O)c3cccc(O)c3O)(CCCNC(=O)c3cccc(O)c3O)CCCNC(=O)c3cccc(O)c3O)c3ccccc3)C(=O)N2[C@H]1C(=O)O,MIC90,Pseudomonas aeruginosa [1],0.05 µM
same,MIC90,Klebsiella pneumoniae [2],> 100 µM
same,MIC90,Pseudomonas aeruginosa [3],0.067 µM
same,MIC90,Pseudomonas aeruginosa [4],12.5 to 33 µM
same,MIC90,Pseudomonas aeruginosa [5],12.5 µM
same,MIC90,Pseudomonas aeruginosa [6],25 µM
same,MIC90,Pseudomonas aeruginosa [7],> 200 µM
same,MIC90,Pseudomonas aeruginosa [8],0.05 to 0.067 µM
same,MIC90,Klebsiella pneumoniae [9],> 100 µM
same,MIC90,Pseudomonas aeruginosa [10],0.39 µM
same,MIC90,Escherichia coli [11],150 µM
same,MIC90,Pseudomonas aeruginosa [12],50 µM
same,MIC90,Klebsiella pneumoniae [13],> 200 µM
same,MIC90,Pseudomonas aeruginosa [14],0.39 µM
same,MIC90,Pseudomonas aeruginosa [15],33 µM
same,MIC90,Escherichia coli [16],1.56 µM
same,MIC90,Pseudomonas aeruginosa [17],> 200 µM
same,MIC90,Klebsiella pneumoniae [18],> 200 µM
O=C(CCC(=O)N(O)CCCCCO)N[C@@H](C(=O)N[C@@H]1C(=O)N2C(C(=O)O)=C(Cl)CC[C@H]12)c1ccccc1,MIC,Acinetobacter baumannii,≥ 128 µM
same,MIC,Escherichia coli [19],> 128 µM
same,MIC,Enterococcus faecium,> 128 µM
same,MIC,Klebsiella pneumoniae [20],> 128 µM
same,MIC,Staphylococcus aureus [21],16 µM
same,MIC,Pseudomonas aeruginosa [22],> 128 µM
same,MIC,Klebsiella aerogenes,> 128 µM
CN[C@H](CC(C)C)C(=O)N[C@H]1C(=O)N[C@@H](CC(N)=O)C(=O)N[C@H]2C(=O)N[C@H]3C(=O)N[C@H](C(=O)N[C@H](C(=O)O)c4cc(O)cc(O)c4-c4cc3ccc4O)[C@H](O)c3ccc(c(Cl)c3)Oc3cc2cc(c3O[C@@H]2O[C@H](CO)[C@@H](O)[C@H](O)[C@H]2O[C@H]2C[C@](C)(NC(=O)CCC(=O)N(O)CCCCCNC(=O)CCC(=O)N(CCCCNC(=O)c3cccc(O)c3O)CCCNC(=O)c3cccc(O)c3O)[C@H](O)[C@H](C)O2)Oc2ccc(cc2Cl)[C@H]1O,MIC,Staphylococcus aureus [23],8 µM
same,MIC,Pseudomonas aeruginosa [24],> 128 µM
same,MIC,Escherichia coli [25],32 µM
same,MIC,Pseudomonas aeruginosa [26],> 128 µM
same,MIC,Micrococcus luteus [27],16 µM
same,MIC,Pseudomonas aeruginosa [28],> 128 µM
same,MIC,Pseudomonas aeruginosa [29],> 128 µM
same,MIC,Micrococcus luteus [30],16 µM
same,MIC,Escherichia coli [31],> 128 µM
same,MIC,Escherichia coli [32],128 µM
same,MIC,Staphylococcus aureus [33],8 µM
same,MIC,Escherichia coli [34],> 128 µM
O=C(CCC(=O)N(O)CCCCCO)NCCCCCN(O)C(=O)CCC(=O)NCCCCCN(O)C(=O)CCC(=O)N1CCN(c2cc3c(cc2F)c(=O)c(C(=O)O)cn3C2CC2)CC1,MIC,Acinetobacter baumannii,≥ 128 µM
same,MIC,Escherichia coli [19],> 128 µM
same,MIC,Enterococcus faecium,64 µM
same,MIC,Klebsiella pneumoniae [20],> 128 µM
same,MIC,Staphylococcus aureus [21],1 µM
same,MIC,Pseudomonas aeruginosa [22],> 128 µM
same,MIC,Klebsiella aerogenes,64 µM
CC1(C)S[C@@H]2[C@H](NC(=O)[C@H](N)c3ccccc3)C(=O)N2[C@H]1C(=O)O [AMPICILLIN],MIC90,Pseudomonas aeruginosa [1],> 200 µM
same,MIC90,Klebsiella pneumoniae [2],> 100 µM
same,MIC90,Pseudomonas aeruginosa [3],0.78 µM
same,MIC90,Pseudomonas aeruginosa [4],0.52 to 200 µM
same,MIC90,Pseudomonas aeruginosa [5],0.52 µM
same,MIC90,Pseudomonas aeruginosa [6],> 200 µM
same,MIC90,Pseudomonas aeruginosa [7],> 200 µM
same,MIC90,Pseudomonas aeruginosa [8],0.78 to 200 µM
same,MIC90,Klebsiella pneumoniae [9],> 100 µM
same,MIC90,Pseudomonas aeruginosa [10],> 100 µM
same,MIC90,Escherichia coli [11],16.7 µM
same,MIC90,Pseudomonas aeruginosa [12],> 200 µM
same,MIC90,Klebsiella pneumoniae [13],> 200 µM
same,MIC90,Pseudomonas aeruginosa [14],> 100 µM
same,MIC90,Pseudomonas aeruginosa [15],> 200 µM
same,MIC90,Escherichia coli [16],12.5 µM
same,MIC90,Pseudomonas aeruginosa [17],> 200 µM
same,MIC90,Klebsiella pneumoniae [18],> 200 µM
CN[C@H](CC(C)C)C(=O)N[C@H]1C(=O)N[C@@H](CC(N)=O)C(=O)N[C@H]2C(=O)N[C@H]3C(=O)N[C@H](C(=O)N[C@H](C(=O)O)c4cc(O)cc(O)c4-c4cc3ccc4O)[C@H](O)c3ccc(c(Cl)c3)Oc3cc2cc(c3O[C@@H]2O[C@H](CO)[C@@H](O)[C@H](O)[C@H]2O[C@H]2C[C@](C)(NC(=O)CCC(=O)N(CCCCNC(=O)c3cccc(O)c3O)CCCNC(=O)c3cccc(O)c3O)[C@H](O)[C@H](C)O2)Oc2ccc(cc2Cl)[C@H]1O,MIC,Staphylococcus aureus [23],32 µM
same,MIC,Pseudomonas aeruginosa [24],> 128 µM
same,MIC,Escherichia coli [25],> 128 µM
same,MIC,Pseudomonas aeruginosa [26],> 128 µM
same,MIC,Micrococcus luteus [27],32 µM
same,MIC,Pseudomonas aeruginosa [28],> 128 µM
same,MIC,Pseudomonas aeruginosa [29],32 µM
same,MIC,Micrococcus luteus [30],16 µM
same,MIC,Escherichia coli [31],> 128 µM
same,MIC,Escherichia coli [32],128 µM
same,MIC,Staphylococcus aureus [33],32 µM
same,MIC,Escherichia coli [34],> 128 µM
CCCCCCCCCCCCCCCCC(=O)N(O)CCCC[C@H](NC(=O)[C@@H]1COC(c2ccccc2O)=N1)C(=O)NC[C@H](NC(=O)CCCO[C@H]1O[C@@H]2O[C@@]3(C)CC[C@H]4[C@H](C)CC[C@@H]([C@H]1C)[C@@]24OO3)C(=O)N[C@H]1CCCCN(O)C1=O,MIC,[35],> 5 µg/mL
same,MIC,[36],0.39 µg/mL
CN[C@H](CC(C)C)C(=O)N[C@H]1C(=O)N[C@@H](CC(N)=O)C(=O)N[C@H]2C(=O)N[C@H]3C(=O)N[C@H](C(=O)N[C@H](C(=O)O)c4cc(O)cc(O)c4-c4cc3ccc4O)[C@H](O)c3ccc(c(Cl)c3)Oc3cc2cc(c3O[C@@H]2O[C@H](CO)[C@@H](O)[C@H](O)[C@H]2O[C@H]2C[C@](C)(N)[C@H](O)[C@H](C)O2)Oc2ccc(cc2Cl)[C@H]1O [VANCOMYCIN],MIC,Staphylococcus aureus [23],0.5 to 4 µM
same,MIC,Pseudomonas aeruginosa [24],> 128 µM
same,MIC,Escherichia coli [25],32 to 64 µM
same,MIC,Pseudomonas aeruginosa [26],> 128 µM
same,MIC,Micrococcus luteus [27],1 to 4 µM
same,MIC,Pseudomonas aeruginosa [28],> 128 µM
same,MIC,Pseudomonas aeruginosa [29],> 128 µM
same,MIC,Micrococcus luteus [30],2 to 4 µM
same,MIC,Escherichia coli [31],> 128 µM
same,MIC,Escherichia coli [32],32 µM
same,MIC,Staphylococcus aureus [33],1 to 4 µM
same,MIC,Escherichia coli [34],> 128 µM
